Measured values from publication PMC12424289, “Programmable Nanostructure Assembly of a Paclitaxel Derivative Enables Tunable Anticancer Therapy via Hydrogen Bond Engineering” (ACS Nano, 2025).

Key:
[1] = In vitro PTP release (transwell, PBS); assay type: physicochemical; settings: over 12 h, 5.0 mg·mL^–1 PTP
Description: The in vitro drug release from the PTP assemblies and PTP@HA was assessed in 1 × PBS (pH 7.4). A 0.1 mL dispersion of PTP (5.0 mg·mL^–1) or PTP@HA (equivalent to 5.0 mg·mL^–1 PTP and 20.0 mg·mL^–1 HA) in saline was added to the upper chamber of a 24-well transwell plate (#3413, Corning, USA) equipped with a 0.4 μm polycarbonate membrane (n = 3). The lower chamber contained 0.6 mL 1 × PBS. The setup was maintained at 37 °C with shaking at 100 rpm. At specified time intervals, the PBS in the lower chamber was replaced with fresh PBS. Each collected sample was mixed with 600 μL acetonitrile and vortexed for 1 min. PTP release and PTX degradation products were quantified by HPLC.

[2] = Degradation of PTP assemblies in aqueous solution (HPLC); assay type: physicochemical; settings: 37 °C
Description: PTP, PTP@PEG, and PTP@HA (200 μL, 0.1 mg·mL^–1) solutions were sealed in ampules and incubated at 37 °C with agitation at 100 rpm. Samples were collected in triplicate at scheduled intervals, treated with acetonitrile, vortexed for 1 min, and analyzed using HPLC. Degradation rate constants (k) were calculated by plotting the natural logarithm of the concentration ratio (ln c/c0) versus time, with the slopes of the linear regression plots representing the rate constants.

mouse breast 4T1 cells = assay: CCK8 antiproliferation assay, 4T1; assay type: cell-based; settings: 4T1, 48 h treatment
Description: The mouse breast cancer cell line 4T1 and the human ovarian cancer cell line SKOV3 were cultured in RPMI 1640 medium supplemented with 10% fetal bovine serum, 100 units·mL^–1 penicillin, and 100 μg·mL^–1 streptomycin. The human lung cancer cell line A549 and the luciferase-expressing human colorectal carcinoma cell line HCT116-Luc were cultured in high-glucose DMEM medium supplemented with 10% fetal bovine serum, 100 units·mL^–1 penicillin, and 100 μg·mL^–1 streptomycin. All cell lines were maintained at 37 °C in a Steri-Cycle 371 incubator (Thermo Scientific, USA) with a humidified atmosphere of 5% CO2. Only cells between passages 5 and 15 were used for cell-based experiments.
The antiproliferative activity of PTP was evaluated using the Cell Counting Kit-8 (CCK8) assay. PTX solution served as a positive control. Cell suspensions were prepared at a density of 3 × 10^4 cells·mL^–1 and seeded in 96-well plates at a volume of 100 μL per well. The plates were incubated for 24 h to allow cell attachment and growth. Subsequently, the culture media were replaced with fresh media containing varying concentrations of PTX or PTP solutions (100 μL per well), and the cells were incubated for an additional 48 h (n = 3). Control wells received fresh culture media alone (n = 3). […] Finally, the absorbance was measured at 450 nm using a microplate reader (Synergy H1, BioTek, USA). […]

[3] = Appearance on dissolving/dispersing in water or excipient solution; assay type: physicochemical; settings: 5.0 mg·mL^–1 drug; with 260.0 mg·mL^–1 PEG400 or 20.0 mg·mL^–1 HA where named
Description: PTP self-assemblies were prepared by adding 5.0 mg of PTP to 1.0 mL of a water, followed by vortexing for 1 min. For PTP@PEG coassemblies, 260.0 mg of PEG400 was mixed with 1.0 mL of the chosen water-based solution. This PEG400 solution was then added to 5.0 mg of PTP powder, and the resulting mixture was vortexed for 1 min. PTP@HA coassemblies were prepared by first dispersing 20.0 mg of HA in 1.0 mL of the selected water-based solution. Following this step, the resulting HA solution was added to 5.0 mg of PTP powder. The final mixture was vortexed for 1 min. To prepare the PTX@PEG control system, 1.3 g of PEG400 was mixed with 5.0 mL of water. Then, 25.0 mg of PTX was added to the solution, and the mixture was vortexed for 1 min. Similarly, the PTX@HA control system was prepared by dispersing 100.0 mg of HA in 5.0 mL of water. Subsequently, 25.0 mg of PTX was added, and the mixture was vortexed for 1 min.

Q: What does the source list for `CC(=O)O[C@H]1C(=O)[C@@]2(C)[C@H]([C@H](OC(=O)c3ccccc3)[C@]3(O)C[C@H](OC(=O)[C@H](OC(=O)CCP(=O)(O)O)[C@@H](NC(=O)c4ccccc4)c4ccccc4)C(C)=C1C3(C)C)[C@]1(OC(C)=O)CO[C@@H]1C[C@@H]2O` [PTP, PTX-2’–OOC-P]?
A: total release of PTP ([1]; PBS pH 7.4, 37 °C): 40.6%; average release rate ([1]; PBS pH 7.4, 37 °C (data not shown)): 17.5 μg·h^–1; degradation rate constant (k) ([2]; 0.1 mg·mL^–1 in 5% glucose (5% G)): 2.3 × 10^–2 day^–1; degradation rate constant (k) ([2]; 0.1 mg·mL^–1 in phosphate buffer saline (PBS)): 1.3 day^–1; degradation rate constant (k) ([2]; 0.1 mg·mL^–1 in saline): 3.2 × 10^–2 day^–1; degradation rate constant (k) ([2]; 0.1 mg·mL^–1 in water): 8.0 × 10^–2 day^–1; IC50 (mouse breast 4T1 cells): 82.4 nM; appearance of the system [3]: transparent solution
